Earlier results as cited in US20060269583A1, “Process and composition for treating wood” (priority 2005, published 2006).

Conditions: in about 10 years under a given set of field conditions

copper removed by leaching: ≤ 80%
Substance: copper amine carbonate complex
